Target: T1, TAK1-TAB1 (Homo sapiens, UniProt O43318)
T1 sequence (O43318 with tags, fused parts or gaps limits assumed): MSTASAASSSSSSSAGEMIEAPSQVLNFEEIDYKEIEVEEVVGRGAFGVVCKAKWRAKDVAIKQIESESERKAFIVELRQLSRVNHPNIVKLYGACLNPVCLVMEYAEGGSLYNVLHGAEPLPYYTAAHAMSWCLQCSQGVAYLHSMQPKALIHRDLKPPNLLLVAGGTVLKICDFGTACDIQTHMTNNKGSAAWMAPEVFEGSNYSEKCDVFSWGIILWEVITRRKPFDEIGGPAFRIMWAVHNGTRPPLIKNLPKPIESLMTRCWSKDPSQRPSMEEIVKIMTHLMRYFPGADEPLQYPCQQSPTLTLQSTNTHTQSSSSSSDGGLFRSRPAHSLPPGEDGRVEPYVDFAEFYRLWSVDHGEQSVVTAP
Assay: TAK1-TAB1 binding inhibitory potency (LanthaScreen competitive binding assay, kinase tracer-236)
Conditions: 10 nM TAK1-TAB1, 100 nM kinase tracer-236; read-out: TAK1-Tab Inhibition IC50
Source text: TAK1-TAB1 Binding Inhibitory Potency:
The ability of candidate compounds to interact with TAK1-TAB1 is quantitated by a competitive binding assay using the LanthaScreen technology developed by Life Technologies. This assay is based on the binding of a proprietary, Alexa Fluor® 647-labeled, ATP-competitive kinase inhibitor (kinase tracer-236) to the TAK1-TAB1 construct in presence of a europium-conjugated antibody, resulting in a FRET (fluorescence resonance energy transfer) signal. Displacement of the kinase tracer by compound results in a lower emission ratio upon excitation of the europium chelate. Candidate compounds are designed as potential irreversible inhibitors of TAK1-TAB1, capable of ligating to an active site cysteine residue. The time dependent nature of irreversible inhibition is investigated by performing the binding assay with and without a pre-incubation of compound and TAK1-TAB1.
The inhibitory potency of candidate compounds is measured in 20 mM HEPES pH 7.5, 10 mM MgCl2, 0.01% BSA, 0.0005% Tween-20, and 2% DMSO in the presence of 10 nM TAK1-TAB1, 2 nM Eu-anti-his antibody, and 100 nM kinase tracer-236 using a 384-well plate format. Background signal is defined in the absence of TAK1-TAB1 and uninhibited signal is defined in the presence of vehicle (2% DMSO) alone. Compounds were evaluated in an 11 point dose-response ranging from 20 μM to 0.34 nM. The binding assays are performed under two conditions to evaluate time dependence of inhibition. For the pre-incubation assay, TAK1-TAB1 and Eu-anti-his antibody are preincubated with compound or vehicle for two hours prior to the addition of kinase tracer. The non-preincubated assay is run in which TAK1-TAB1 and Eu-anti-his antibody are added to a mixture of compound and kinase tracer. IC50 values of compounds are determined using a 4 parameter logistical fit of emission ratio as a function of the concentration of compound. […]

Row | SMILES | IC50 [µM]
1 | Cc1cc(-c2cnc3[nH]cc(/C=C/C(N)=O)c3c2)cc(C(F)(F)F)c1 [Example 348, (E)-3-(5-(3-methyl-5-(trifluoromethyl)phenyl)-1H-pyrrolo[2,3-b]pyridin-3-yl)acrylamide] | ≤ 1
2 | CC(C)COc1ccc(-c2cnc3[nH]cc(/C=C/C(N)=O)c3c2)cn1 [Example 325, (E)-3-(5-(6-isobutoxypyridin-3-yl)-1H-pyrrolo[2,3-b]pyridin-3-yl)acrylamide] | ≤ 1
3 | O=C(/C=C/CO)Nc1c[nH]c2ncc(-c3ccccc3)cc12 [Example 239, (E)-4-hydroxy-N-(5-phenyl-1H-pyrrolo[2,3-b]pyridin-3-yl)but-2-enamide] | ≤ 1
4 | CC(=O)c1cc(-c2cnc3[nH]cc(/C=C/C(N)=O)c3c2)ccn1 [Example 315, (E)-3-(5-(2-acetylpyridin-4-yl)-1H-pyrrolo[2,3-b]pyridin-3-yl)acrylamide] | ≤ 1
5 | NC(=O)/C=C/c1c[nH]c2ncc(-c3cccc(Oc4ccccc4)c3)cc12 [Example 341, (E)-3-(5-(3-phenoxyphenyl)-1H-pyrrolo[2,3-b]pyridin-3-yl)acrylamide] | ≤ 1
6 | NC(=O)/C=C/c1c[nH]c2ncc(N3CCN(C(=O)c4ccc(F)cc4F)CC3)cc12 [Example 332, (E)-3-(5-(4-(2,4-difluorobenzoyl)piperazin-1-yl)-1H-pyrrolo[2,3-b]pyridin-3-yl)acrylamide] | ≤ 1
7 | C#CC(=O)Nc1c[nH]c2ncc(-c3ccccc3)cc12 [Example 238, N-(5-phenyl-1H-pyrrolo[2,3-b]pyridin-3-yl)propiolamide] | > 1
8 | CC(C)(O)c1cccc(-c2cnc3[nH]cc(/C=C/C(N)=O)c3n2)c1 [Example 308, (E)-3-(2-(3-(2-hydroxypropan-2-yl)phenyl)-5H-pyrrolo[2,3-b]pyrazin-7-yl)acrylamide] | ≤ 1
9 | Cc1nc(C(=O)N(C)C)ccc1-c1cnc2[nH]cc(/C=C/C(N)=O)c2c1 [Example 351, (E)-5-(3-(3-amino-3-oxoprop-1-en-1-yl)-1H-pyrrolo[2,3-b]pyridin-5-yl)-N,N,6-trimethyl-picolinamide] | ≤ 1
10 | NC(=O)/C=C/c1c[nH]c2ncc(-c3ccc(Oc4ccccc4)nc3)cc12 [Example 345, (E)-3-(5-(6-phenoxypyridin-3-yl)-1H-pyrrolo[2,3-b]pyridin-3-yl)acrylamide] | ≤ 1
11 | Cc1nc2[nH]cc(/C=C/C(N)=O)c2cc1-c1cccnc1 [Example 330, (E)-3-(6-methyl-5-(pyridin-3-yl)-1H-pyrrolo[2,3-b]pyridin-3-yl)acrylamide] | ≤ 1
12 | NC(=O)/C=C/c1c[nH]c2ncc(-c3ccc4c(c3)CCC4=O)nc12 [Example 343, (E)-3-(2-(1-oxo-2,3-dihydro-1H-inden-5-yl)-5H-pyrrolo[2,3-b]pyrazin-7-yl)acrylamide] | ≤ 1
13 | CON(C)C(=O)c1ccc(-c2cnc3[nH]cc(/C=C/C(N)=O)c3c2)cc1 [Example 329, (E)-4-(3-(3-amino-3-oxoprop-1-en-1-yl)-1H-pyrrolo[2,3-b]pyridin-5-yl)-N-methoxy-N-methyl-benzamide] | ≤ 1
14 | NC(=O)/C=C/c1c[nH]c2ncc(C=O)cc12 [Example 356, (E)-3-(5-formyl-1H-pyrrolo[2,3-b]pyridin-3-yl)acrylamide] | ≤ 1
15 | N#CC(C#N)=Cc1c[nH]c2ncc(-c3ccccc3)cc12 [Example 242, 2-((5-phenyl-1H-pyrrolo[2,3-b]pyridin-3-yl)methylene) malononitrile] | > 1
16 | CC(C)(O)c1ccc(-c2cnc3[nH]cc(/C=C(\C#N)C(N)=O)c3c2)cc1 [Example 360, (E)-2-cyano-3-(5-(4-(2-hydroxypropan-2-yl)phenyl)-1H-pyrrolo[2,3-b]pyridin-3-yl)acrylamide] | ≤ 1
17 | CC(C)OC(=O)N1CCN(c2cnc3[nH]cc(/C=C/C(N)=O)c3c2)CC1 [Example 301, (E)-isopropyl 4-(3-(3-amino-3-oxoprop-1-en-1-yl)-1H-pyrrolo[2,3-b]pyridin-5-yl)piperazine-1-carboxylate] | ≤ 1
18 | CN(C)C/C=C/C(=O)Nc1c[nH]c2ncc(-c3ccccc3)cc12 [Example 241, (E)-4-(dimethylamino)-N-(5-phenyl-1H-pyrrolo[2,3-b]pyridin-3-yl)but-2-enamide] | > 1

Row | SMILES | IC50 [µM]
19 | O=C(Nc1c[nH]c2ncc(-c3ccccc3)cc12)C1=CCCC1 [Example 232, N-(5-phenyl-1H-pyrrolo[2,3-b]pyridin-3-yl)cyclopent-1-enecarboxamide] | > 1
20 | CC(=O)c1ccc(-c2cnc3[nH]cc(/C=C/C(N)=O)c3c2)cn1 [Example 303, (E)-3-(5-(6-acetylpyridin-3-yl)-1H-pyrrolo[2,3-b]pyridin-3-yl)acrylamide] | ≤ 1
21 | NC(=O)/C=C/c1c[nH]c2ncc(-c3ccc(N4CCCC4)nc3)nc12 [Example 254, (E)3-(2-(6-(pyrrolidin-1-yl)pyridin-3-yl)-5H-pyrrolo[2,3-b]pyrazin-7-yl)acrylamide] | > 1
22 | CCC(=O)c1ccc(-c2cnc3[nH]cc(/C=C/C(N)=O)c3n2)c(C)c1 [Example 314, (E)-3-(2-(2-methyl-4-propionylphenyl)-5H-pyrrolo[2,3-b]pyrazin-7-yl)acrylamide] | ≤ 1
23 | NC(=O)/C=C/c1c[nH]c2ncc(-c3ccc(Oc4ccc(F)cc4)cc3)cc12 [Example 344, (E)-3-(5-(4-(4-fluorophenoxy)phenyl)-1H-pyrrolo[2,3-b]pyridin-3-yl)acrylamide] | ≤ 1
24 | NC(=O)/C=C/c1c[nH]c2ncc(-c3ccc(OCC4CC4)nc3)cc12 [Example 327, (E)-3-(5-(6-(cyclopropyl-methoxy)pyridin-3-yl)-1H-pyrrolo[2,3-b]pyridin-3-yl)acrylamide] | ≤ 1
25 | CC(C)(O)c1ccc(-c2cnc3[nH]cc(/C=C/C(N)=O)c3n2)cc1 [Example 309, (E)-3-(2-(4-(2-hydroxypropan-2-yl)phenyl)-5H-pyrrolo[2,3-b]pyrazin-7-yl)acrylamide] | ≤ 1
26 | CC(C)(O)c1ccc(-c2cnc3[nH]cc(/C=C/C(N)=O)c3c2)cn1 [Example 312, (E)-3-(5-(6-(2-hydroxypropan-2-yl)pyridin-3-yl)-1H-pyrrolo[2,3-b]pyridin-3-yl)acrylamide] | ≤ 1
27 | CC(=O)c1cccc(-c2cnc3[nH]cc(/C=C/C(N)=O)c3n2)c1 [Example 306, (E)-3-(2-(3-acetylphenyl)-5H-pyrrolo[2,3-b]pyrazin-7-yl)acrylamide] | ≤ 1
28 | CCC(C)(O)c1ccc(-c2cnc3[nH]cc(/C=C/C(N)=O)c3c2)cc1 (centres unmarked) [Example 310, (E)-3-(5-(4-(2-hydroxybutan-2-yl)phenyl)-1H-pyrrolo[2,3-b]pyridin-3-yl)acrylamide] | ≤ 1
29 | Cc1cc(C2CCC(c3cnc4[nH]cc(/C=C/C(N)=O)c4c3)CC2)cc(C(F)(F)F)c1 (centres unmarked) [Example 358, (E)-3-(5-(4-(3-methyl-5-(trifluoromethyl)phenyl)cyclohexyl)-1H-pyrrolo[2,3-b]pyridin-3-yl)acrylamide] | ≤ 1
30 | NC(=O)/C=C/c1c[nH]c2ncc(-c3cccnc3)nc12 [Example 255, (E)-3-(2-(pyridin-3-yl)-5H-pyrrolo[2,3-b]pyrazin-7-yl)acrylamide] | > 1
31 | NC(=O)/C=C/c1c[nH]c2ncc(C(=O)c3ccccc3)cc12 [Example 338, (E)-3-(5-benzoyl-1H-pyrrolo[2,3-b]pyridin-3-yl)acrylamide] | ≤ 1
32 | NC(=O)/C=C/c1c[nH]c2ncc(-c3ccc4c(c3)C(=O)CC4)cc12 [Example 352, (E)-3-(5-(3-oxo-2,3-dihydro-1H-inden-5-yl)-1H-pyrrolo[2,3-b]pyridin-3-yl)acrylamide] | ≤ 1
33 | CC(C)(O)c1cccc(-c2cnc3[nH]cc(C=C(C(N)=O)C(N)=O)c3c2)c1 [Example 365, 2-((5-(3-(2-hydroxypropan-2-yl)phenyl)-1H-pyrrolo[2,3-b]pyridin-3-yl)methylene) malonamide] | ≤ 1
34 | NC(=O)/C=C/c1c[nH]c2ncc(-c3ccc(Oc4ccccc4)cc3)cc12 [Example 342, (E)-3-(5-(4-phenoxyphenyl)-1H-pyrrolo[2,3-b]pyridin-3-yl)acrylamide] | ≤ 1
35 | NC(=O)/C=C/c1c[nH]c2ncc(-c3ccc(C(=O)C(F)(F)F)cc3)cc12 [Example 319, (E)-3-(5-(4-(2,2,2-trifluoroacetyl)phenyl)-1H-pyrrolo[2,3-b]pyridin-3-yl)acrylamide] | ≤ 1

Reference: US9499551B2, “Substituted pyrrolo[2,3-b]pyridines for treating cancer or inflammatory diseases” (Confluence Life Sciences, Inc., priority 2014, dated 2016)
